Among the test systems are NCI-H460 lung; UO-31 renal; CCRF-CEM leukemia; COLO 205 colon; IGROV1 ovarian; OVCAR-4 ovarian; MOLT-4 leukemia; UACC-62 melanoma; K-562 leukemia; OVCAR-3 ovarian.
Experiment in all cases: NCI tumour cell line growth inhibition, 48 h

The results in this text go back to PubChem BioAssay (NCI).

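Protocol summary: plate cells (96-well), add compound at 5 concentrations, incubate 48 h, interpolate endpoints linearly. TGI: total growth inhibition.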

For the molecule `O=C(O)CCCN=C(C1=C(O)C(=O)N(c2ccccc2)C1=O)c1ccccc1`, the TGI in the assay with NCI-H460 lung, with UO-31 renal, in the assay on CCRF-CEM leukemia, with COLO 205 colon, with IGROV1 ovarian and with OVCAR-4 ovarian was over 100 µM each time. In addition, the TGI in the assay on MOLT-4 leukemia, in the assay on UACC-62 melanoma, in the assay on K-562 leukemia and with OVCAR-3 ovarian was over 100 µM throughout.

`N=C(N)c1ccc(N=Nc2c(O)ccc3cc4c(N=Nc5ccc(C(=N)N)cc5)c(O)ccc4cc23)cc1`: the TGI in the assay with NCI-H460 lung, with UO-31 renal, with CCRF-CEM leukemia, in the assay with COLO 205 colon, in the assay with IGROV1 ovarian and in the assay on OVCAR-4 ovarian was over 100 µM each time. Also, the TGI in the assay on MOLT-4 leukemia, with UACC-62 melanoma, in the assay on K-562 leukemia and in the assay with OVCAR-3 ovarian was over 100 µM in each case.

As to `Cc1cc(=O)n2c3c(c4c(cc13)c(CN(C)C)cc(=O)n4C)OC2`, the TGI in the assay with NCI-H460 lung was over 100 µM; in the assay with UO-31 renal it was over 89.8 µM; with CCRF-CEM leukemia, over 100 µM; with COLO 205 colon, 35.1 µM; with IGROV1 ovarian it was 41.9 µM; in the assay on OVCAR-4 ovarian, over 77.9 µM. Besides, the TGI is over 100 µM in the assay with MOLT-4 leukemia, 30.1 µM in the assay with UACC-62 melanoma, over 100 µM in the assay with K-562 leukemia and 80.1 µM with OVCAR-3 ovarian.

In the case of `Cn1cc(-c2nnc(-c3ccc(Cl)cc3)[nH]c2=O)c2ccccc21`, the TGI in the assay on NCI-H460 lung is over 44.1 µM; with UO-31 renal, over 47 µM; in the assay with CCRF-CEM leukemia, over 22.7 µM; with COLO 205 colon it was over 100 µM; with IGROV1 ovarian, over 100 µM; in the assay with OVCAR-4 ovarian it was over 100 µM. For the same molecule, the TGI in the assay with MOLT-4 leukemia is 98.8 µM; in the assay with UACC-62 melanoma, over 51.9 µM; in the assay with K-562 leukemia, over 100 µM; in the assay on OVCAR-3 ovarian, 14.9 µM.

Turning to `CCOC(=O)/C(=C\NC(C)(C)CO)c1nc2ccccc2[nH]1`, the TGI in the assay on NCI-H460 lung is over 100 µM; with UO-31 renal, 11.7 µM; with CCRF-CEM leukemia it was over 100 µM; with COLO 205 colon it was over 100 µM; in the assay with IGROV1 ovarian, over 100 µM; in the assay with OVCAR-4 ovarian it was over 100 µM. In addition, the TGI with MOLT-4 leukemia, with UACC-62 melanoma, in the assay on K-562 leukemia and with OVCAR-3 ovarian was over 100 µM each time.

Consider `Cc1ccc(C(=O)Nc2ncn(C3CC(O)C(CO)O3)c(=O)n2)cc1` (stereo not given), for which the TGI in the assay on NCI-H460 lung, in the assay with UO-31 renal, with CCRF-CEM leukemia, in the assay with COLO 205 colon, with IGROV1 ovarian and with OVCAR-4 ovarian was over 100 µM each time. Also, the TGI was 97.3 µM in the assay on MOLT-4 leukemia, over 100 µM with UACC-62 melanoma, over 100 µM in the assay on K-562 leukemia and over 56.5 µM with OVCAR-3 ovarian.
